In a compilation of properties of binary mixtures (doi:10.1021/acs.jced.0c00426):

Assay: xn = mol fraction of the nth substance listed
Details: 101.3 kPa

CNc1ccccc1 + CCCCCCCCn1cc[n+](C)c1.F[B-](F)(F)F
x2 = 0
Details	speed of sound [m/s]
298.15 K	1565
303.15 K	1546
308.15 K	1527
313.15 K	1508
318.15 K	1489
323.15 K	1471

CNc1ccccc1 + CCCCCC[n+]1ccn(C)c1.F[B-](F)(F)F
speed of sound [m/s]
Details	x2 = 0	x2 = 0.1058	x2 = 0.2201	x2 = 0.3079	x2 = 0.395	x2 = 0.501	x2 = 0.6034	x2 = 0.7024	x2 = 0.804	x2 = 0.8984
293.15 K	1584	–	1589	1580	1569	1557	–	1538	1531	1526
298.15 K	1565	1578	1577	1569	–	1549	1539	1532	1526	1523
303.15 K	1546	–	1560	1554	1545	1535	–	1519	1513	1510
308.15 K	–	1545	1544	–	–	–	1512	1505	1501	1497
313.15 K	1508	1527	1528	1523	1516	1507	1499	1493	1488	–
318.15 K	1489	–	1511	1507	1501	–	1486	1480	1476	1472
323.15 K	–	1490	1495	1492	1486	1479	1473	1467	1464	1460

CCCCCCCCn1cc[n+](C)c1.F[B-](F)(F)F + CNc1ccccc1
speed of sound [m/s]
Details	x1 = 0.1032	x1 = 0.2037	x1 = 0.285	x1 = 0.383	x1 = 0.4978	x1 = 0.5939	x1 = 0.7016	x1 = 0.7942	x1 = 0.9002	x1 = 1
293.15 K	1582	1571	–	1549	1536	1526	–	1509	1502	1499
298.15 K	–	1555	1545	1533	1521	1512	1502	1495	1488	1485
303.15 K	1548	1538	1529	1518	1507	1499	1489	–	1475	1472
308.15 K	1531	1522	1513	1503	–	–	–	1469	1462	–
313.15 K	1514	–	1498	1489	1479	–	1463	1456	1450	1446
318.15 K	1496	1491	1483	–	1465	1458	1451	1444	1438	1433
323.15 K	1479	–	1468	1460	1451	1444	–	1431	1426	1421

CNc1ccccc1 + CCCC[n+]1ccn(C)c1.F[B-](F)(F)F
speed of sound [m/s]
Details	x2 = 0	x2 = 0.0973	x2 = 0.184	x2 = 0.2982	x2 = 0.3909	x2 = 0.5025	x2 = 0.5928	x2 = 0.7005	x2 = 0.7963	x2 = 0.901
293.15 K	1584	1598	1602	–	–	1594	–	1586	–	1580
298.15 K	–	–	1587	1590	1586	1580	1577	1573	1571	1569
303.15 K	1546	1564	1572	1575	1572	–	–	–	–	1558
308.15 K	1527	–	1555	1560	–	1554	–	1550	–	1547
313.15 K	1508	1532	1540	1544	1544	1543	1541	1539	–	1536
318.15 K	–	1515	1524	1529	1530	–	1528	1527	1526	1525
323.15 K	1471	1498	1508	1514	–	1516	1515	1516	1515	1516

CCCC[n+]1ccn(C)c1.F[B-](F)(F)F + CNc1ccccc1
x1 = 1
Details	speed of sound [m/s]
303.15 K	1555
313.15 K	1532
318.15 K	1521
323.15 K	1511

CCCCCC[n+]1ccn(C)c1.F[B-](F)(F)F + CNc1ccccc1
x1 = 1
Details	speed of sound [m/s]
298.15 K	1519
303.15 K	1507
308.15 K	1494
313.15 K	1482
318.15 K	1470
323.15 K	1458
